Two molecules from patent publication US20130178449A1, “2-Methylene-20(21)-Dehydro-19,24,25,26,27-Pentanor-Vitamin D Analogs” (WISCONSIN ALUMNI RESEARCH FOUNDATION, priority 2011, published 2013) can be followed below.

Read-outs that look alike come from different tables or passages of the source.

As usually defined, the EC50 is the midpoint of the concentration-response curve. Usually Ki stands for the dissociation constant of the complex between target and ligand, obtained from inhibition or displacement.

Test [1] relates to 24-hydroxylase (24Ohase) gene promoter. Put plainly: In vitro transcription assay (24-hydroxylase promoter luciferase reporter in ROS 17/2.8 bone cells). The following applies: for EC50: ROS 17/2.8 cells, 24-hydroxylase gene, FIG. 3, read-out: EC50, transcriptional activity in bone cells. It is filed as cell-based. Here is the method:
Transcription activity was measured in ROS 17/2.8 (bone) cells that were stably transfected with a 24-hydroxylase (24Ohase) gene promoter upstream of a luciferase reporter gene (Arbour et al., 1998). Cells were given a range of doses. Sixteen hours after dosing the cells were harvested and luciferase activities were measured using a luminometer.
RLU=relative luciferase units.
On the technique in general: Reporter assays use an easily measured gene product as a stand-in for the process of interest.

A short description of test [2]: Bone calcium mobilization (serum calcium) in vitamin D-deficient rats. In kind it is in vivo, rat. The following applies: ip, 4 consecutive days, rats on 0.02% Ca diet. Here is the method: (§1) Male, weanling Sprague-Dawley rats were placed on Diet 11 (0.47% Ca) diet+AEK oil for one week followed by Diet 11 (0.02% Ca)+AEK oil for 3 weeks. The rats were then switched to a diet containing 0.47% Ca for one week followed by two weeks on a diet containing 0.02% Ca. Dose administration began during the last week on 0.02% calcium diet. Four consecutive ip doses were given approximately 24 hours apart. Twenty-four hours after the last dose, blood was collected from the severed neck and the concentration of serum calcium determined as a measure of bone calcium mobilization. The first 10 cm of the intestine was also collected for intestinal calcium transport analysis using the everted gut sac method.

The target in test [3] is T1, full-length recombinant rat vitamin D receptor (Rattus norvegicus, UniProt P13053).
T1 construct: Full-length recombinant rat receptor was expressed in E. coli BL21 (DE3) Codon Plus RIL cells; histidine tag (C); made in house; host or cells: E. coli BL21 (DE3) Codon Plus RIL
T1 sequence (P13053 1-423): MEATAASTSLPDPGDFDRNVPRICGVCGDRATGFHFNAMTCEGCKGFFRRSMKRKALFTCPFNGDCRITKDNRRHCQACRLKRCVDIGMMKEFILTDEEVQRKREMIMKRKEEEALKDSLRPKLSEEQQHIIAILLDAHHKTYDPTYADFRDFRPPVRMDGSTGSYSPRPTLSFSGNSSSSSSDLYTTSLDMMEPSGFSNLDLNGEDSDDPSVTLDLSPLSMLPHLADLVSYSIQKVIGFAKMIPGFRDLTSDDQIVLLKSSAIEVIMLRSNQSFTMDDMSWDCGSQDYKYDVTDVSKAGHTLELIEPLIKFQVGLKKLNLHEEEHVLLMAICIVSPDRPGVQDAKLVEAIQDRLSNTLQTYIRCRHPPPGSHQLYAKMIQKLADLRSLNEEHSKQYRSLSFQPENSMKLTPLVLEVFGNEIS
Put plainly: Vitamin D receptor binding (competition with [3H]-1,25(OH)2D3). Here is the method:
Full-length recombinant rat receptor was expressed in E. coli BL21 (DE3) Codon Plus RIL cells and purified to homogeneity using two different column chromatography systems. The first system was a nickel affinity resin that utilizes the C-terminal histidine tag on this protein. The protein that was eluted from this resin was further purified using ion exchange chromatography (S-Sepharose Fast Flow). Aliquots of the purified protein were quick frozen in liquid nitrogen and stored at −80° C. until use. For use in binding assays, the protein was diluted in TEDK50 (50 mM Tris, 1.5 mM EDTA, pH7.4, 5 mM DTT, 150 mM KCl) with 0.1% Chaps detergent. The receptor protein and ligand concentration were optimized such that no more than 20% of the added radiolabeled ligand was bound to the receptor.
Radiolabeled and unlabeled ligands were added to 100 mcl of the diluted protein at a final ethanol concentration of ≦10%, mixed and incubated overnight on ice to reach binding equilibrium. The following day, 100 mcl of hydroxylapatite slurry (50%) was added to each tube and mixed at 10-minute intervals for 30 minutes. The hydroxylapaptite was collected by centrifugation and then washed three times with Tris-EDTA buffer (50 mM Tris, 1.5 mM EDTA, pH 7.4) containing 0.5% Titron X-100. […] Total binding was determined from the tubes containing only radiolabeled ligand.

A further test has as its system HL-60 cells. Kind of test: HL-60 differentiation (nitro blue tetrazolium reduction). It is filed as cell-based, human. The following applies: for EC50: HL-60 cells into monocytes, FIG. 2, read-out: EC50, HL-60 cell differentiation. The procedure: The study drugs were dissolved in ethanol and the concentrations determined using UV spectrophotometry. Serial dilutions were prepared so that a range of drug concentrations could be tested without changing the final concentration of ethanol (≦0.2%) present in the cell cultures.
Human promyelocytic leukemia (HL60) cells were grown in RPMI-1640 medium containing 10% fetal bovine serum. The cells were incubated at 37° C. in the presence of 5% CO2.
HL60 cells were plated at 1.2×10^5 cells/ml. Eighteen hours after plating, cells in duplicate were treated with drug. Four days later, the cells were harvested and a nitro blue tetrazolium reduction assay was performed (Collins et al., 1979; J. Exp. Med. 149:969-974). The percentage of differentiated cells was determined by counting a total of 200 cells and recording the number that contained intracellular black-blue formazan deposits. Verification of differentiation to monocytic cells was determined by measuring phagocytic activity (data not shown).

Test [4] can be described thus: Intestinal calcium transport (everted gut sac) in vitamin D-deficient rats. In kind it is in vivo, rat. The following applies: ip, 4 consecutive days. The procedure: as §1

For the molecule `C=C1[C@H](O)CC(=C/C=C2\CCC[C@]3(C)[C@@H](C(=C)CC)CC[C@@H]23)C[C@H]1O` [MDBE 20, 2-methylene-20(21)-dehydro-19,24,25,26,27-pentanor-1α-hydroxyvitamin D3], the half-maximal effective concentration (EC50) in test [1] turned out to be 4 nM; with HL-60 cells (Homo sapiens), 30 nM. For the same molecule, in test [1] (bone cells, compared to 1,25(OH)2D3), the “times less potent than 1,25(OH)2D3 in increasing transcription of the 24-hydroxylase gene” value amounted to 10 times. For the same molecule, the “bone calcium mobilization (serum calcium)” value is on record as “did not result in mobilization of bone calcium” in test [2] (7020 pmol/day) and “no substantial effect was seen” in test [2] (35100 pmol/day). Besides, in test [3] (compared to native hormone), the “VDR binding activity relative to 1α,25-dihydroxyvitamin D3” value is given as “about one-half log less active”. Moreover, the inhibition constant (Ki) in test [3] (full-length recombinant rat VDR, FIG. 1) came to 0.08 nM. Further, the “times less potent than 1,25(OH)2D3 on HL-60 cell differentiation” value in the test on HL-60 cells (compared to 1,25(OH)2D3) is “about 10 times”. Besides, the intestinal calcium transport entry in test [4] (7020 pmol/day) and in test [4] (35100 pmol/day) was “does not promote intestinal calcium transport” in each case.

`C=C1/C(=C\C=C2/CCC[C@]3(C)[C@@H]([C@H](C)CCCC(C)(C)O)CC[C@@H]23)C[C@@H](O)C[C@@H]1O` [1,25(OH)2D3, 1α,25-dihydroxyvitamin D3, reference compound]: the EC50 in test [1] came to 0.2 nM; in the test with HL-60 cells, 3 nM. In addition, the “bone calcium mobilization (serum calcium)” value in test [2] (260 pmol/day) is “increased serum calcium levels”. Besides, the intestinal calcium transport entry in test [4] (260 pmol/day) is recorded as “significant increase”.
